One test deals with T1, FLT3 (Homo sapiens, UniProt P36888).
T1 construct: purchased ThermoFisher PV3182
T1 sequence (P36888 27-993): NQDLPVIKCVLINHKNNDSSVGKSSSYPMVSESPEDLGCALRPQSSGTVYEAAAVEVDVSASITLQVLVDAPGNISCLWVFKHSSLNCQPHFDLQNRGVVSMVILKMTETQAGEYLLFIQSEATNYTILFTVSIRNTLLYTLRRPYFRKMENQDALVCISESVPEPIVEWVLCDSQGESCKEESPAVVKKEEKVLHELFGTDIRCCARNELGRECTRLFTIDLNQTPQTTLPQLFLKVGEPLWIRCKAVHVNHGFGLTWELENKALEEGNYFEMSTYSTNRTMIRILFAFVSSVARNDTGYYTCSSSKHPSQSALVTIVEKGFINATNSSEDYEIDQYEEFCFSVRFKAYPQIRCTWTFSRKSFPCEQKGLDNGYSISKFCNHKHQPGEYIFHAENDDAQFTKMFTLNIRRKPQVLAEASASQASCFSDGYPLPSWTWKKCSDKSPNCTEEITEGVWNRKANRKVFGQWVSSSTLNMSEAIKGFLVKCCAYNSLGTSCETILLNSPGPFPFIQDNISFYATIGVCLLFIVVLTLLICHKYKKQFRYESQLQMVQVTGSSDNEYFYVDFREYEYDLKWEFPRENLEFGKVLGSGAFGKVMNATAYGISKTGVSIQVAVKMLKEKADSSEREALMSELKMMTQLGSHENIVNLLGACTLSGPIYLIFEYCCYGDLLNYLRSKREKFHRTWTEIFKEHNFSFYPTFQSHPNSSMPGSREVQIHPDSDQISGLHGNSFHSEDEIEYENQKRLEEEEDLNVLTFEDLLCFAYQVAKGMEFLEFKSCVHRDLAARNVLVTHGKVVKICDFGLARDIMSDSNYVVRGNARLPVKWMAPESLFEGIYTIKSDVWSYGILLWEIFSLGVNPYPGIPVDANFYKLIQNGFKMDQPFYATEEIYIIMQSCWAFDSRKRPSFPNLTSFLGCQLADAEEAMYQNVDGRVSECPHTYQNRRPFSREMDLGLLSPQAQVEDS
The test can be described thus: Caliper mobility shift kinase inhibition assay, recombinant FLT3. To be noted: recombinant FLT-3 0.1 nM, ATP 95 μM, incubation 3 hr, room temperature. Type of test: biochemical. As to the method: Compounds' inhibition of recombinant kinases (FLT3, KIT) was measured using Caliper mobility shift assay, which is based on the difference in capillary electrophoresis mobility of a fluorescent-tagged peptide as a result of a phosphorylation by the kinase under study. Reactions were started by the addition of various concentrations of a compound (originally in DMSO solution) to a kinase solution in assay buffer followed by addition of a mixture of ATP and a fluorescent-tagged peptide substrate in assay buffer. Concentrations of the enzyme, ATP and thepeptide were pre-optimized so that 15% substrate conversion to ensure initial velocity measurements. After incubation for 3 hours at room temperature, the kinase reaction was quenched by the addition of a concentrated EDTA solution before analysis on a LabChip EZ Reader II to yield percentage inhibition by comparing to the DMSO control. Table 2 below summarizes the assay conditions for the characterization of the kinase inhibition properties of the disclosed compounds.

Another test deals with T2, KIT (Homo sapiens, UniProt P10721).
T2 construct: purchased BPS 40250
T2 sequence (P10721 26-976): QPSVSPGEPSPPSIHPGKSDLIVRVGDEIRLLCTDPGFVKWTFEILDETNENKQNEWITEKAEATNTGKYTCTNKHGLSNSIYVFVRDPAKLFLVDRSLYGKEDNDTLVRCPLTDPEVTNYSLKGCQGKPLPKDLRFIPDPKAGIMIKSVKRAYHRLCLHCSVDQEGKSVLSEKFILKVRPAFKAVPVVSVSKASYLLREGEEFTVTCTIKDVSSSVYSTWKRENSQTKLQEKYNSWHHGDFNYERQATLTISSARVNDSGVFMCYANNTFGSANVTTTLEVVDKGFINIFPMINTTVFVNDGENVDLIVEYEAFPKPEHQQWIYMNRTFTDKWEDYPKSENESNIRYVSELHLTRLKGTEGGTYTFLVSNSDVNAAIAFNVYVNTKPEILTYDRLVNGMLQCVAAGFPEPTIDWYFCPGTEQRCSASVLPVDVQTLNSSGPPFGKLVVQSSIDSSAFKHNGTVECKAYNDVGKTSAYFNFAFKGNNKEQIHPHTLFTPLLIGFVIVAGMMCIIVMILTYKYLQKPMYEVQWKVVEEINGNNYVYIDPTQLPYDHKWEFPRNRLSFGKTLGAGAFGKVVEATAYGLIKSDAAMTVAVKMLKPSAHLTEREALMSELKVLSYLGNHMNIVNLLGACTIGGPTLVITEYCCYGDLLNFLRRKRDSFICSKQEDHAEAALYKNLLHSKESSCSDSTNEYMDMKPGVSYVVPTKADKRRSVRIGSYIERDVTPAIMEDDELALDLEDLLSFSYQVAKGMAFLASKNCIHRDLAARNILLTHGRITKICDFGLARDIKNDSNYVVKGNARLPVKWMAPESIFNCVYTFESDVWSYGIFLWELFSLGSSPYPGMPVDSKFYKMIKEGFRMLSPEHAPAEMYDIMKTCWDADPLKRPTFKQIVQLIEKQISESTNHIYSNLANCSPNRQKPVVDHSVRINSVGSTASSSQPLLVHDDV
The test can be described thus: Caliper mobility shift kinase inhibition assay, recombinant KIT. Type of test: biochemical. The conditions noted are these: recombinant KIT 0.9 nM, ATP 400 μM, incubation 17 hr (Table 2).

A further test deals with MV4-11. The test can be described thus: Cell viability assay (CellTiter-Glo), FLT3 cell-based assay. The conditions noted are these: MV4-11 cells, 72 hr at 37° C., 0.1% DMSO. As to the method:
Cell viability assay was performed based on the following brief procedures. Cells were plated at the density of 5K/well with volume of 180 μL in 96-well white plate and clear bottom plates. 20 μL of veh. or compound was added at proper concentration to the well. The final volume is 200 μL, with final conc. of DMSO=0.1%, 11 points, triplicates. The cells were then treated at 37° C. in the TC incubator for 72 hr. Equal volume (200 μL) of CellTiter-Glo reagent (Promega) was added to the well and protect from light at room temperature for 15 min. The chemiluminescence was measured with EnSight (Perkin Elmer). GraphPad Prism non-linear regression, Log[inhibitor] response with four parameters were used to calculate GI50.

Where only a bound is given, the exact number is not on record here.

Usually IC50 stands for the concentration needed to halve the response being measured. The GI50 is the concentration giving 50% growth inhibition. Higher therefore signals less potent growth inhibition. For the molecule `C=CC(=O)N1C[C@@H](O)C[C@H]1C(=O)NCCn1cnc2cnc(Nc3ncc(-c4ccc(F)cc4)s3)cc21` [Example 14, (2S,4S)-N-[2-[6-[[5-(4-fluorophenyl)thiazol-2-yl]amino]imidazo[4,5-c]pyridin-1-yl]ethyl]-4-hydroxy-1-prop-2-enoylpyrrolidine-2-carboxamide], the IC50 at FLT3 and at KIT was under 1 nM in each case. Also, the GI50 in the test on MV4-11 (Homo sapiens) was under 10 nM.

Regarding `C=CC(=O)N1CC[C@H](O)[C@H]1C(=O)NCCn1cnc2cnc(Nc3ncc(-c4ccc(F)cc4)s3)cc21` [Example 15, (2S,3S)-N-[2-[6-[[5-(4-fluorophenyl)thiazol-2-yl]amino]imidazo[4,5-c]72yridine-1-yl]ethyl]-3-hydroxy-1-prop-2-enoylpyrrolidine-2-carboxamide], the IC50 on FLT3 and on KIT was under 1 nM in each case. For the same molecule, the GI50 in the test on MV4-11 (Homo sapiens) was under 10 nM.

Regarding `C=CC(=O)N1C[C@H](O)C[C@H]1C(=O)NCCn1cnc2cnc(Nc3ncc(-c4ncncc4F)s3)cc21` [Example 21, (2S,4R)-N-[2-[6-[[5-(5-fluoropyrimidin-4-yl)thiazol-2-yl]amino]imidazo[4,5-c]pyridin-1-yl]ethyl]-4-hydroxy-1-prop-2-enoyl-pyrrolidine-2-carboxamide], the figures for the IC50 on FLT3 and at KIT were 1 to 10 nM and 10 to 100 nM, respectively. Also, in the test with MV4-11 (Homo sapiens), the GI50 was in the range of 10 to 100 nM.

As to `C=CC(=O)N1CCOC[C@H]1C(=O)NCCn1cnc2cnc(Nc3ncc(-c4ncncc4F)s3)cc21` [Example 22, (3S)-N-[2-[6-[[5-(5-fluoropyrimidin-4-yl)thiazol-2-yl]amino]imidazo[4,5-c]pyridin-1-yl]ethyl]-4-prop-2-enoyl-morpholine-3-carboxamide], the IC50 on FLT3 and at KIT was under 1 nM each time. For the same molecule, in the test with MV4-11 (Homo sapiens), the GI50 is under 10 nM.

`C=CC(=O)N1CC[C@H](O)[C@H]1C(=O)NCCn1cnc2cnc(Nc3ncc(-c4ncccc4F)s3)cc21` [Example 24, (2S,3S)-N-[2-[6-[[5-(3-fluoro-2-pyridyl)thiazol-2-yl]amino]imidazo[4,5-c]pyridin-1-yl]ethyl]-3-hydroxy-1-prop-2-enoyl-pyrrolidine-2-carboxamide]: the IC50 on FLT3 and at KIT was under 1 nM throughout. The same molecule showed a 50% growth inhibitory concentration (GI50) in the test with MV4-11 (Homo sapiens) of 10 to 100 nM.

Consider `CN(C)C/C=C/C(=O)N1CC[C@H](O)[C@H]1C(=O)NCCn1cnc2cnc(Nc3ncc(-c4ncccc4F)s3)cc21` [Example 26, (2S,3S)-1-[(E)-4-(dimethylamino)but-2-enoyl]-N-[2-[6-[[5-(3-fluoro-2-pyridyl)thiazol-2-yl]amino]imidazo[4,5-c]pyridin-1-yl]ethyl]-3-hydroxy-pyrrolidine-2-carboxamide], for which the IC50 at FLT3 and on KIT was under 1 nM each time. The molecule further gave a 50% growth inhibitory concentration (GI50) in the test with MV4-11 (Homo sapiens) of 10 to 100 nM.

Consider “(2S,3S)-1-(2-fluoroprop-2-enoyl)-N-[2-[6-[[5-(3-fluoro-2-pyridyl)thiazol-2-yl]amino]imidazo[4,5-c]pyridin-1-yl]ethyl]-3-hydroxy-pyrrolidine-2-carboxamide [Example 25]”, for which the IC50 lay in the range of 10 to 100 nM at FLT3 and 100 to 1000 nM at KIT. Further, the GI50 in the test on MV4-11 fell in the range of 10 to 100 nM.

In the case of “(3S)-4-[(E)-4-(dimethylamino)but-2-enoyl]-N-[2-[6-[[5-(5-fluoropyrimidin-4-yl)thiazol-2-yl]amino]imidazo[4,5-c]pyridin-1-yl]ethyl]morpholine-3-carboxamide [Example 23]”, the IC50 on FLT3 and at KIT was under 1 nM throughout. The molecule further yielded a GI50 with MV4-11 of 10 to 100 nM.

Values taken from patent US20250170107A1, “IMIDAZOPYRIDINE INHIBITORS OF TYROSINE KINASE” (BridGene Biosciences. Inc., priority 2022, published 2025).
